Results: the supplement of paper PMC10307832

What was measured:
Experiment in all cases: relative viability (nuclei count vs DMSO), 5 days (fraction); higher = more cells survive
[1] = compound: C1COCCN1C2=NC(=NC3=C2OC4=C3C=CC=N4)C5=CC(=CC=C5)NC(=O)C6=CN=C(C=C6)N + CC1(C)CCC(c2ccc(Cl)cc2)=C(CN2CCN(c3ccc(C(=O)NS(=O)(=O)c4ccc(N[C@H](CCN5CCOCC5)CSc5ccccc5)c(S(=O)(=O)C(F)(F)F)c4)cc3)CC2)C1 [Navitoclax] (partner 0.5 µM)
Procedure, shortened: (§1)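 Relative viability divides the nuclei count in treated wells by that in vehicle wells. Lung cancer cell lines were seeded in 1536-well plates, dosed by pin tool the next day, and fixed and stained after 5 days in one step with final 0.05% Triton X-100, 1% formaldehyde and 1 ug/ml Hoechst. Dosing was a single drug or a fixed anchor-drug dose plus five library-drug doses (not always all listed) in √10 steps, and values are medians of duplicate plates imaged at 4×.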

SGI-1776 + Palbociclib = compound: CN1CCC(CNc2ccc3ncc(-c4cccc(OC(F)(F)F)c4)n3n2)CC1 [SGI-1776] + CC(=O)c1c(C)c2cnc(Nc3ccc(N4CCNCC4)cn3)nc2n(C2CCCC2)c1=O [Palbociclib] (partner 0.5 µM)
Procedure, shortened: as §1

Entinostat + Palbociclib = compound: Nc1ccccc1NC(=O)c1ccc(CNC(=O)OCc2cccnc2)cc1 [Entinostat] + CC(=O)c1c(C)c2cnc(Nc3ccc(N4CCNCC4)cn3)nc2n(C2CCCC2)c1=O [Palbociclib] (partner 0.5 µM)
Procedure, shortened: as §1

[2] = compound: C1COCCN1C2=NC(=NC3=C2OC4=C3C=CC=N4)C5=CC(=CC=C5)NC(=O)C6=CN=C(C=C6)N + NC(=O)Nc1cc(-c2cccc(F)c2)sc1C(=O)N[C@H]1CCCNC1 [AZD7762] (partner 0.2 µM)
Procedure, shortened: as §1

Row | Cell Line | relative viability ([1]; first compound 0.02 µM) | relative viability ([1]; first compound 0.06325 µM) | relative viability ([1]; first compound 0.2 µM) | relative viability ([1]; first compound 0.6325 µM) | relative viability ([1]; first compound 2 µM) | relative viability (SGI-1776 + Palbociclib; first compound 0.08 µM) | relative viability (SGI-1776 + Palbociclib; first compound 0.8 µM) | relative viability (SGI-1776 + Palbociclib; first compound 2.53 µM) | relative viability (SGI-1776 + Palbociclib; first compound 8 µM) | relative viability (Entinostat + Palbociclib; first compound 0.02 µM) | relative viability (Entinostat + Palbociclib; first compound 0.06325 µM) | relative viability (Entinostat + Palbociclib; first compound 0.2 µM) | relative viability (Entinostat + Palbociclib; first compound 0.6325 µM) | relative viability (Entinostat + Palbociclib; first compound 2 µM) | relative viability ([2]; first compound 0.02 µM) | relative viability ([2]; first compound 0.06325 µM) | relative viability ([2]; first compound 0.2 µM) | relative viability ([2]; first compound 0.6325 µM) | relative viability ([2]; first compound 2 µM)
1 | NCI-H520 | 1.12 | 1.17 | 1.06 | 1.07 | 0.713 | 0.267 | 0.219 | 0.191 | 0.16 | 0.195 | 0.237 | 0.32 | 0.355 | 0.236 |  |  |  |  | 
2 | Calu-6 | 1.03 | 1.01 | 0.846 | 0.809 | 0.384 |  |  |  |  |  |  |  |  |  |  |  |  |  | 
3 | SK-LU-1 | 0.982 | 0.724 | 0.863 | 0.765 | 0.447 | 0.425 | 0.306 | 0.415 | 0.371 | 0.361 | 0.395 | 0.361 | 0.311 | 0.316 |  |  |  |  | 
4 | LCLC-97TM1 |  | 0.532 | 0.673 | 0.546 | 0.43 | 0.252 | 0.231 | 0.198 | 0.228 | 0.21 | 0.213 | 0.236 | 0.277 | 0.18 | 0.19 | 0.236 | 0.231 | 0.258 | 0.256
5 | HCC-15 | 0.678 | 0.786 | 0.684 | 0.605 | 0.452 | 0.694 | 0.666 | 0.772 | 0.51 | 0.734 | 0.674 | 0.572 | 0.454 | 0.273 | 1.29 | 1.28 | 1.24 | 1.06 | 0.982
6 | H3255 | 0.54 | 0.553 | 0.533 | 0.421 | 0.467 | 0.363 | 0.34 | 0.328 | 0.311 | 0.339 | 0.345 | 0.348 | 0.301 | 0.27 | 0.923 | 0.959 | 0.856 | 0.859 | 0.7
7 | NCI-H1915 | 0.757 | 0.838 | 0.824 | 0.836 | 0.873 | 0.534 | 0.541 | 0.554 | 0.509 | 0.51 | 0.494 | 0.43 | 0.383 | 0.208 | 0.72 | 0.767 | 0.716 | 0.726 | 0.664
8 | NCI-H1650 | 1.27 | 1.34 | 1.06 | 1.32 | 0.539 | 0.373 | 0.354 | 0.344 | 0.228 | 0.352 | 0.299 | 0.334 | 0.283 | 0.162 |  |  |  |  | 
9 | NCI-H647 | 1.18 | 1.11 | 1.22 | 1.16 | 0.704 | 0.506 | 0.367 | 0.319 | 0.258 | 0.318 | 0.343 | 0.337 | 0.0924 | 0.0625 | 0.481 | 0.627 | 0.373 | 0.527 | 0.359
10 | NCI-H522 |  |  |  |  |  | 1.22 | 1.25 | 0.953 | 0.731 | 1.01 | 1.15 | 1.13 | 1.01 | 0.97 | 0.708 | 0.867 | 0.773 | 0.834 | 0.684
11 | COR-L23 | 1.14 | 1.1 | 1.05 | 1.13 | 0.666 | 0.282 | 0.309 | 0.32 | 0.247 | 0.31 | 0.249 | 0.253 | 0.139 | 0.0938 |  |  |  |  | 
12 | NCI-H650 |  |  |  |  |  | 0.39 | 0.349 | 0.312 | 0.33 | 0.412 | 0.349 | 0.361 | 0.257 | 0.167 | 1.08 | 1 | 0.993 | 0.809 | 0.852
13 | NCI-H2009 | 1.19 | 1.2 | 1.12 | 1.05 | 0.954 | 0.251 | 0.151 | 0.166 | 0.174 | 0.189 | 0.301 | 0.187 | 0.253 | 0.214 |  |  |  |  | 
14 | NCI-H661 |  |  |  |  |  | 0.415 | 0.399 | 0.412 | 0.338 | 0.411 | 0.464 | 0.429 | 0.391 | 0.355 |  |  |  |  | 
15 | NCI-H358 |  |  |  |  |  | 0.112 | 0.141 | 0.129 | 0.113 | 0.134 | 0.14 | 0.17 | 0.127 | 0.125 | 0.442 | 0.475 | 0.443 | 0.465 | 0.409
16 | SK-MES-1 | 1.42 | 1.22 | 1.17 | 0.931 | 0.787 | 0.379 | 0.315 | 0.327 | 0.241 | 0.31 | 0.395 | 0.394 | 0.43 | 0.422 |  |  |  |  | 
17 | NCI-H1648 |  |  |  |  |  | 0.286 | 0.327 | 0.226 | 0.319 | 0.297 | 0.25 | 0.259 | 0.247 | 0.258 | 0.619 | 0.747 | 0.641 | 0.698 | 0.539
18 | LCLC-103H |  |  |  |  |  | 0.524 | 0.456 | 0.475 | 0.401 | 0.526 | 0.438 | 0.406 | 0.429 | 0.427 | 0.809 | 0.784 | 0.8 | 0.81 | 0.631
19 | NCI-H1703 | 0.874 | 1.03 | 0.983 | 0.646 | 0.416 |  |  |  |  |  |  |  |  |  | 0.143 | 0.146 | 0.127 | 0.108 | 0.124
20 | EBC-1 | 0.397 | 0.368 | 0.32 | 0.377 | 0.234 |  |  |  |  |  |  |  |  |  |  |  |  |  | 
21 | NCI-H2023 | 1.05 | 1.03 | 0.967 | 0.904 | 0.444 | 0.38 | 0.396 | 0.354 | 0.266 | 0.319 | 0.312 | 0.258 | 0.151 | 0.0658 |  |  |  |  | 
22 | ABC-1 |  |  |  |  |  | 0.661 | 0.98 | 0.501 | 0.431 | 0.591 | 0.788 | 0.61 | 0.658 | 0.41 | 0.793 | 0.638 | 0.608 | 1.03 | 0.684
23 | NCI-H596 | 1.04 | 0.983 | 1.03 | 0.912 | 0.444 |  |  |  |  |  |  |  |  |  | 1.15 | 1.06 | 0.97 | 1.06 | 0.929
